Marks after values point to notes of the source that are not given here.
Experiments:
MCP-1 promoter = MCP-1 promoter luciferase reporter in 3T3-L1 pre-adipocytes; assay type: cell-based
Protocol: 3T3-L1 cells (American Type Culture Collection, Manassas, Va.) were grown in 24-well plates in DMEM high glucose medium (Invitrogen, Carlsbad, Calif.) containing 10% fetal bovine serum (FBS) until 60-70% confluence. Before transfection, the medium was changed to 1% FBS. The cells cultured in 24-well plates were co-transfected with 0.8 μg plasmid DNA and 1 ng of pRL reporter control plasmid per well using F-1 transfection reagents (Targeting Systems, Santee, Calif.) according to the manufacturer's protocol. Transfection efficiencies were determined by cotransfecting the cells with a pcDNA™ 3.1/His/lacZ control vector at 24 h. The transfected cells were then treated with either a racemic ABA mixture (12.5 μM; Sigma) or rosiglitazone (1 μM; Cayman Chemicals, Ann Arbor, Mich.) for 24 hours. Designated wells were also treated with the PPAR γ antagonist GW9662 (30 μM; Cayman Chemicals). Transfected cells were harvested in reporter lysis reagent. Luciferase activity, normalized to pRL activity in the cell extracts was determined by using the dual luciferase reporter assay system (Promega, Madison, Wis.) in a TD-20/20 Single-Tube Luminometer (Turner Biosystems, Sunnyvale, Calif.). Relative luciferase activity (RLA) was calculated as a ratio of the chemiluminescence 10 seconds after the Luciferase Assay Reagent II (Promega) was added over the chemiluminescence 10 seconds after the Stop&Glo Reagent (Promega).
To further examine the effect of ABA on MCP-1 transactivation, 3T3-L1 preadipocytes were transfected with a MCP-1 promoter luciferase reporter construct and also cotransfected with a pCMX PPAR γ expression plasmid to increase endogenous PPAR γ activity. Cells were then treated with ABA (12.5 μM), rosiglitazone (1 μM), the PPAR γ antagonist GW9662 (30 μM), or a combination of agonist and inhibitor.

Total lymphocytes = test: Lymphocyte blastogenesis test (LBT); assay type: cell-based, mice; conditions: 100 mg ABA/kg diet
Protocol: (§1) Single cell suspensions were prepared from the spleen by gently crushing the spleens excised during the necropsy procedure between the frosted ends of microscope glass slides previously autoclaved. Tissue debris were removed by settling, erythrocytes were eliminated by hypotonic lysis and cells finally resuspended in complete RPMI (cRPMI, 10% fetal bovine serum (Hyclone, Logan, Utah), 25 mM HEPES buffer (Sigma, St. Louis, Mo.), 100 units/ml penicillin (Sigma), […] streptomycin (Sigma), 1 mM sodium pyruvate (Sigma), 1 mM nonessential aminoacids (Sigma), and 2 mM essential amino acids (Mediatech), and enumerated with a Coulter Z1 Single Particle Counter (Beckman Coulter, Miami, Fla.).
Wells of 96-well, round bottom microtiter plates were seeded with 2×10^5 splenocytes in a total volume of […] per well. Cells were cultured in cRPMI media with or without 2.5 μg/ml of Concanavalin A (Sigma) for 4 days. On day 4, […] of methyl-[^3Thymidine] was added to each well, and cells we incubate for 20 additional hours. Well contents were harvested onto glass fiber filters using cell harvester, and incorporated radioactivity measured by liquid scintillation counting. Samples were run in triplicate for each animal and ex-vivo treatment. Stimulation indices were calculated by dividing counts per minute of mitogen-stimulated wells by counts per minute of unstimulated wells.

CD8+ T cells = test: CFSE flow cytometry proliferation assay, Concanavalin A-stimulated splenocytes, CD8+ T cells; assay type: cell-based, mice; conditions: 100 mg ABA/kg diet; first 4 generations
Protocol: as §1, with “Fla.). […]” for “Fla.).”
Splenocytes at 10^6 cells/ml were seeded in 96-well, round-bottom microtiter plates and incubated incomplete RPMI with or without Concanavalin A (Sigma) at 2.5 μg/ml. […] Following 2 washes in Fluorescence activated cell sorting (FACS) buffer, cells were incubated with streptavidin-PeCy5 (Pharmingen, San Diego, Calif.) for the biotinylated anti-mouse CD4 antibody. Cells were analyzed by 3-color flow cytometry (CFSE, phycoerythrin and PeCy5) in a FACScalibur instrument (Becton Dickinson). Ten thousand events were acquired, and data were analyzed using the Cell Quest Pro™ software (Becton Dickinson). Proliferation was assessed by the decrease in fluorescent intensity of CFSE staining. […]

[1] = system: dextran sodium sulfate (DSS)-induced colitis; test: DSS-induced colitis in C57BL/6J (wt) and PPAR γ flfl; CD4 Cre+ mice; assay type: in vivo
Protocol: Eight to twelve week old C57BL/6J (n=16) and PPAR γ flfl; CD4 cre+(n=20) mice were housed at the animal facilities at Virginia Polytechnic Institute and State University in a room maintained at 75° F., with a 12:12 h light-dark cycle starting from 6:00 AM. All experimental procedures were approved by the Institutional Animal Care and Use Committee of Virginia Polytechnic Institute and State University and met or exceeded requirements of the Public Health Service/National Institutes of Health and the Animal Welfare Act. C57BL/6J mice were fed AIN-93G-based diets with or without 100 mg/kg of a racemic ABA mixture for 35 days prior to induction of colitis with water containing 2.5% dextran sodium sulfate (DSS), 36,000-44,000 mol wt (ICN Biomedicals, Aurora, Ohio). After the DSS challenge mice were weighed on a daily basis and examined for clinical signs of disease associated with colitis (i.e., perianal soiling, rectal bleeding, diarrhea, and piloerection). For the DSS challenge, the disease activity indices and rectal bleeding scores were calculated using a modification of a previously published compounded clinical score (50). […] Spleen and mesenteric lymph nodes (MLN) were scored based on size and macroscopic inflammatory lesions (0-3), excised, and then crushed to produce single-cell suspensions for flow cytometry.

db/db mice = test: Intraperitoneal glucose tolerance test (IPGTT) in db/db mice; assay type: in vivo
Protocol: Experiment 1: mice (n=25) were fed high-fat (>40% energy from fat), isocaloric, isonitrogenous diets containing 0, 100, 200, 400, and 800 mg of a racemic (±) ABA mixture/kg diet for 36 days (Table 1) (Sigma). These doses were chosen based on the standard concentrations of TZDs utilized in the treatment of NIDDM. The mice were weighed and their food intake was recorded daily. On day 36 of the study fasted mice (12 h) were bled through the caudal vein and fasting blood glucose concentrations were determined. To investigate the ability of ABA to normalize glucose concentrations, an intraperitoneal glucose tolerance test (IPGTT) was performed on day 36 on the fasted mice. Briefly, mice were bled at 0, 10, 25, and 45 minutes following the administration of glucose (2 g/kg) for measurement of plasma glucose levels. […] Weights were recorded for WAT, interscapular brown adipose tissue (BAT), and liver.
Experiment 2: The ABA dose utilized (100 mg ABA/kg) was based on the results obtained from the IPGTT of the ABA titration study (i.e., Experiment 1). Mice in experiment 2 were fed high-fat diets containing 0 or 100 mg ABA/kg for 36 days. Their body weights and food intake was recorded daily, and blood was collected on day 36 of the study during an IPGTT. This IPGTT included one additional 100 minutes time point. […] Weights were recorded for abdominal WAT, BAT, and liver.

CC1=CC(=O)CC(C)(C)C1(O)/C=C/C(C)=C\C(=O)O (racemic) [ABA, abscisic acid]
MCP-1 promoter activity (MCP-1 promoter; ABA 12.5 μM, rosiglitazone 1 μM, co-transfection with PPAR γ expression vector): significantly enhanced the ability of both ABA and rosiglitazone to inhibit MCP-1 promoter activity
effects on MCP-1 transactivation under cotreatment with antagonist (MCP-1 promoter; plus GW9662 30 μM): significantly inhibited by cotreatment with GW9662
LBT Total lymphocytes SI (Total lymphocytes): 9.22
CD8+ T cells RPI1 (CD8+ T cells): 5.261*
improvements in disease activity and inflammation ([1]; CD4cre mice lacking PPAR γ in CD4+ T cells): not present in the CD4cre mice
disease activity and macroscopic inflammation ([1]; wild-type (wt) mice): significantly reduced disease activity and macroscopically observable inflammation
response in glucose homeostasis during the IPGTT, dose comparison (db/db mice; Experiment 1, 100 mg ABA/kg dose): most favorable response
response to the IPGTT (db/db mice; Experiment 1, day 36): improved response to the IPGTT
glucose levels during IPGTT versus control (db/db mice; Experiment 2, 100 mg ABA/kg diet): significantly lower at every time point up to 100 minutes

Reference: patent US8367727B2, “Method of using abscisic acid to treat diseases and disorders” (priority 2006, dated 2013)
